In assay [1] the test system is Leishmania amazonensis. Briefly: Inhibition on leishmania mexicana amazonensis. The format is functional, organism-based.
In assay [2] the target is GABA-A receptor; anion channel.
Description: Inhibition on Benzodiazepine receptor
The target of assay [3] is Acetylcholinesterase (Homo sapiens, UniProt P22303).
Description: Inhibition acetylcholinesterase (AChE) enzyme.

For orientation: IC50 means the concentration at which inhibition is half-maximal. A lower IC50 goes with greater potency. One may read the pIC50 as the IC50 on a negative log10 scale, so that one unit is a factor of ten. A higher pIC50 goes with a small IC50.

Sequence of Acetylcholinesterase (P22303 whole entry): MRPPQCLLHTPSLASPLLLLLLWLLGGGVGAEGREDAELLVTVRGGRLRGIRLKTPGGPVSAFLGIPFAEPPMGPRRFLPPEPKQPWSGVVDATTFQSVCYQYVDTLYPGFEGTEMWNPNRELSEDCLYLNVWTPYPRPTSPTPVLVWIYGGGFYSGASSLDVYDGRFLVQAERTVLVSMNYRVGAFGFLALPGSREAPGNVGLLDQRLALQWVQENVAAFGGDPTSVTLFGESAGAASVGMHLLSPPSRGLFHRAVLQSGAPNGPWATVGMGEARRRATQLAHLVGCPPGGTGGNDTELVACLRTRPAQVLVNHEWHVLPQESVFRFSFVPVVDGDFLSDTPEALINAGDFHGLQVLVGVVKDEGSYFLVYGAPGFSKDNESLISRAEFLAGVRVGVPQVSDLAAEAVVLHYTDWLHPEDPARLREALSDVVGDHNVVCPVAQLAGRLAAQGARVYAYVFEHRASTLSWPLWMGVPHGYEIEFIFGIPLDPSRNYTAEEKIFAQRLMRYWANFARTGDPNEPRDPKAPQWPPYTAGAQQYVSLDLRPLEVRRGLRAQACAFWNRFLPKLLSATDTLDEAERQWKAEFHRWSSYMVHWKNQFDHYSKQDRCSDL

Regarding `COc1cc(C2=NCCN2)ccc1OCCCCCOc1ccc(C2=NCCN2)cc1OC`, the concentration for half-maximal inhibition (IC50) in assay [1] was 4040 µM. This lies in the millimolar range. Same read-out and setting: the result for `COc1cc(C2=NCCN2)ccc1OCCCCOc1ccc(C2=NCCN2)cc1OC` reads 6410 µM.

For `COc1cc(C2=NCCN2)ccc1OCCCOc1ccc(C2=NCCN2)cc1OC`, inhibition in assay [1] was half-maximal at 2260 µM (IC50). With `c1cc(C2=NCCN2)ccc1OCCCCOc1ccc(C2=NCCN2)cc1`, half-maximal inhibition in assay [1] (IC50) was put at 2710 µM. The IC50 values of the last two compounds are within 1.5-fold of each other. Same read-out and setting: the result for `N=C(N)c1ccc(NCCCCCNc2ccc(C(=N)N)cc2N)c(N)c1` reads 1160 µM. In turn, `CC(C)COc1cc2c(cn1)[nH]c1ccccc12` gave a pIC50 in assay [2] of 7.03. On the same count and under the same terms, the result for `CC(C)(C)COc1cc2c3ccccc3nc-2c[nH]1` reads 7.02. Same read-out and setting: the result for `CC(C)(C)C(=O)c1cc2c3ccccc3nc-2c[nH]1` reads 6.45.

The compound `N=C(N)c1ccc(NCCCCCCNc2ccc(C(=N)N)cc2)cc1` gave a half-maximal inhibitory concentration (IC50) in assay [1] of 289 µM. `C[N+](C)(C)CCCBr` showed a concentration for half-maximal inhibition (IC50) in assay [3] of 87.9 µM. The same measure, in the same setting: to `C[N+](C)(C)c1cccc(N)c1` belongs 192 µM. Turning to `COc1cc(C(=N)N)ccc1OCCCCCOc1ccc(C(=N)N)cc1OC`, the midpoint of inhibition in assay [1], the IC50, lay at 3030 µM.

`N=C(N)c1ccc(NCCCCCCNc2ccc(C(=N)N)cc2N)c(N)c1` showed a concentration for half-maximal inhibition (IC50) in assay [1] of 991 µM. Still for that read-out and setting: the result for `N=C(N)c1ccc(OCCCCOc2ccc(C(=N)N)cc2Cl)c(Cl)c1` reads 1330 µM; that for `N=C(N)c1ccc(NCCCNc2ccc(C(=N)N)cc2[N+](=O)[O-])c([N+](=O)[O-])c1`, 4830 µM. `N=C(N)c1ccc(OCCCCCOc2ccc(C(=N)N)cc2Cl)c(Cl)c1` showed an IC50 in assay [1] of 703 µM. This IC50 lies about 6.9-fold lower than the previous one.

In assay [1], `N=C(N)c1ccc(OCCCOc2ccc(C(=N)N)cc2N)c(N)c1` gave a 50% inhibitory concentration (IC50) of 3500 µM. Against the preceding compound, the IC50 is about 5-fold higher. The same measure, in the same setting: to `N=C(N)c1ccc(NCCCNc2ccc(C(=N)N)cc2)cc1` belongs 687 µM. In assay [1], `N=C(N)c1ccc(OCCCCCOc2ccc(C(=N)N)cc2[N+](=O)[O-])c([N+](=O)[O-])c1` showed an IC50 of 2000 µM. Compared with the last compound, the IC50 is about 2.9-fold higher. On the same count and under the same terms, to `COc1cc(C(=N)N)ccc1OCCCOc1ccc(C(=N)N)cc1OC` belongs 1790 µM; to `N=C(N)c1ccc(OCCCCCOc2ccc(C(=N)N)cc2Br)c(Br)c1`, 678 µM; to `N=C(N)c1ccc(OCCCCOc2ccc(C(=N)N)cc2N)c(N)c1`, 7570 µM. The same measure, in the same setting: the result for `c1cc(C2=NCCN2)ccc1OCCCCCOc1ccc(C2=NCCN2)cc1` reads 1720 µM.

In the case of `N=C(N)c1ccc(OCCOc2ccc(C(=N)N)cc2)cc1`, the half-inhibitory concentration (IC50) in assay [1] is 15800 µM. The compound `N=C(N)c1ccc(NCCCCCNc2ccc(C(=N)N)cc2)cc1` gave a concentration for half-maximal inhibition (IC50) in assay [1] of 558 µM. The compound `N=C(N)c1ccc(NCCNc2ccc(C(=N)N)cc2N)c(N)c1` had a half-maximal inhibitory concentration (IC50) in assay [1] of 26200 µM. This IC50 is about 47-fold higher than that of the compound before.

The compound `N=C(N)c1cccc(OCCCCOc2cccc(C(=N)N)c2)c1` showed an IC50 in assay [1] of 5430 µM. The compound `N=C(N)c1cccc(OCCCCCCOc2cccc(C(=N)N)c2)c1` had a half-inhibitory concentration (IC50) in assay [1] of 1040 µM. The same measure, in the same setting: the result for `N=C(N)c1ccc(OCCCCOc2ccc(C(=N)N)cc2)cc1` reads 1590 µM; that for `N=C(N)c1cccc(OCCCCCOc2cccc(C(=N)N)c2)c1`, 2130 µM; that for `N=C(N)c1ccc(NCCCCCNc2ccc(C(=N)N)cc2[N+](=O)[O-])c([N+](=O)[O-])c1`, 1130 µM. The compound `N=C(N)c1cccc(OCCCOc2cccc(C(=N)N)c2)c1` gave a half-maximal inhibitory concentration (IC50) in assay [1] of 6100 µM.

`COc1cc(C(=N)N)ccc1OCCCCOc1ccc(C(=N)N)cc1OC` gave an IC50 in assay [1] of 10000 µM. Still for that read-out and setting: the result for `N=C(N)c1ccc(NCCCCNc2ccc(C(=N)N)cc2N)c(N)c1` reads 7870 µM. Still for that read-out and setting: to `N=C(N)c1ccc(OCCOc2ccc(C(=N)N)cc2N)c(N)c1` belongs 22600 µM; to `N=C(N)c1ccc(NCCCCNc2ccc(C(=N)N)cc2)cc1`, 671 µM.

In turn, `Cn1c2ccccc2c2c3[nH]c4ccccc4c3ncc21` had a negative-log IC50 (pIC50) in assay [2] of 5.93.

As to `c1ccc2c(c1)[nH]c1c2ncc2[nH]c3ccccc3c21`, the pIC50 in assay [2] is 8.4. Turning to `Clc1cccc2[nH]c3c4c5ccccc5nc-4c[nH]c3c12`, the pIC50 in assay [2] worked out at 6.15.

In assay [2], `Cc1ccc2[nH]c3c4c5ccccc5nc-4c[nH]c3c2c1` showed a pIC50 of 6.65. Same read-out and setting: to `CC(C)(C)OC(=O)c1cc2c3ccccc3nc-2c[nH]1` belongs 8.

Regarding `N=C(N)c1ccc(OCCOc2ccc(C(=N)N)cc2[N+](=O)[O-])c([N+](=O)[O-])c1`, the 50% inhibitory concentration (IC50) in assay [1] is 50000 µM. For `N=C(N)c1ccc(OCCCCOc2ccc(C(=N)N)cc2[N+](=O)[O-])c([N+](=O)[O-])c1`, in assay [1], the midpoint of inhibition, the IC50, lay at 5600 µM. With `COc1ccc(-n2nc3c4ccccc4[nH]cc-3c2=O)cc1`, in assay [2], the negative-log IC50 (pIC50) is 10. In assay [2], `CCc1nc(C(=O)OC)cc2c1[nH]c1ccccc12` registered a negative-log IC50 (pIC50) of 5.12. Consider `CC(C)Oc1cc2c(cn1)[nH]c1ccccc12`, for which, in assay [2], the negative logarithm of the IC50 (pIC50) was 6.29. `CCCCOc1cc2c(cn1)[nH]c1ccccc12` had a pIC50 in assay [2] of 7.01. The same measure, in the same setting: to `COc1cc2c(cn1)[nH]c1ccccc12` belongs 6.91. Consider `Clc1cc2c(cn1)[nH]c1ccccc12`, for which the negative logarithm of the IC50 (pIC50) in assay [2] was 7.35. The same measure, in the same setting: the result for `CCOc1cc2c(cn1)[nH]c1ccccc12` reads 7.62; that for `CCCOc1cc2c(cn1)[nH]c1ccccc12`, 7.96; that for `CCCC(=O)c1cc2c(cn1)[nH]c1ccccc12`, 7.64. Same read-out and setting: to `CCCCc1cc2c(cn1)[nH]c1ccccc12` belongs 6.64. Same read-out and setting: to `O=[N+]([O-])c1cc2c3ccccc3nc-2c[nH]1` belongs 6.9. `c1ccc2c(c1)[nH]c1c2ccc2[nH]c3ccccc3c21` had a negative-log IC50 (pIC50) in assay [2] of 5.71. In assay [2], `CCOC(=O)c1cc2c(cn1)sc1ccccc12` gave a pIC50 of 5.77.

In the case of `c1cc(C2=NCCN2)ccc1OCCCOc1ccc(C2=NCCN2)cc1`, the concentration for half-maximal inhibition (IC50) in assay [1] is 1770 µM.

Take `C[N+](C)(C)c1cccc([N+](=O)[O-])c1`: in assay [3], the 50% inhibitory concentration (IC50) was 628 µM. Take `Cc1ccc2c(c1)[nH]c1c3c4ccccc4nc-3c[nH]c12`: the negative-log IC50 (pIC50) in assay [2] came to 8.1. On the same count and under the same terms, to `Cc1cccc2c1[nH]c1c3c4ccccc4nc-3c[nH]c12` belongs 7.17; to `CCOC(=O)c1cc2c(cn1)Cc1ccccc1-2`, 6.17. Same read-out and setting: the result for `CCOC(=O)c1cc2c(cn1)nc(O)c1ccccc12` reads 5.62. Compound `COc1cccc2[nH]c3c4c5ccccc5nc-4c[nH]c3c12` showed a pIC50 in assay [2] of 6.6. The compound `CC(C)(C)COC(=O)c1cc2c3ccccc3nc-2c[nH]1` displayed a pIC50 in assay [2] of 6.12. Still for that read-out and setting: to `Cc1cccc2[nH]c3c4c5ccccc5nc-4c[nH]c3c12` belongs 5.16; to `Cn1c2ccccc2c2[nH]cc3nc4ccccc4c-3c21`, 6.8; to `CCOC(=O)c1cc2c(cn1)oc1ccccc12`, 5.07. Still for that read-out and setting: the result for `CCC(C)Oc1cc2c3ccccc3nc-2c[nH]1` (stereo not drawn) reads 6.33. Still for that read-out and setting: the result for `c1ccc(COc2cc3c4ccccc4nc-3c[nH]2)cc1` reads 6; that for `CC(C)CCOc1cc2c3ccccc3nc-2c[nH]1`, 6.37; that for `COC(=O)c1cc2c(cn1)[nH]c1ccccc12` [BETA-CCM], 8.3. In turn, `O=C1C2C=Nc3ccccc3C2=NN1c1ccccc1` (stereo not drawn) [CGS-8216] had a pIC50 in assay [2] of 9.4.

In assay [2], `O=C1C2C=Nc3ccccc3C2=NN1c1ccc(Cl)cc1` (stereo not drawn) [CGS-9896] came in with a negative logarithm of the IC50 (pIC50) of 9.22.

The compound `Cc1nccc2c1[nH]c1ccccc12` [HARMAN] displayed a negative logarithm of the IC50 (pIC50) in assay [2] of 4.91. In assay [1], `N=C(N)c1ccc(OCCCCCCOc2ccc(C(=N)N)cc2)cc1` [HEXAMIDINE] gave an IC50 of 396 µM. Turning to `c1ccc2c(c1)[nH]c1cnccc12` [NORHARMANE], in assay [2], the pIC50 is listed as 5.79.

As for `N=C(N)c1ccc(OCCCCCOc2ccc(C(=N)N)cc2)cc1` [PENTAMIDINE], inhibition in assay [1] was half-maximal at 820 µM (IC50). In assay [1], `N=C(N)c1ccc(OCCCOc2ccc(C(=N)N)cc2)cc1` [PROPAMIDINE] gave a concentration for half-maximal inhibition (IC50) of 851 µM.

For the origin of these results see ChEMBL document CHEMBL1130277, “Three-dimensional quantitative structure-activity relationships from molecular similarity matrices and genetic neural networks. 2. Applications” (J Med Chem, 1997).
